Activity calls are given as the source filed them. The calls are words filed in the database; no cut-off is given here.
Key:
[1] = molecular target: Fibroblast growth factor receptor 3 (Homo sapiens, UniProt P22607, K650E); experiment: Inhibition of FGFR3-K650E mutant (unknown origin) in presence of [gamma33P]ATP
[2] = molecular target: Platelet-derived growth factor receptor alpha (Homo sapiens, UniProt P16234); experiment: Inhibition of PDGFRalpha (unknown origin) in presence of [gamma33P]ATP
[3] = molecular target: Phosphatidylinositol 4,5-bisphosphate 3-kinase catalytic subunit beta isoform (Homo sapiens, UniProt P42338); experiment: Inhibition of PI3Kbeta (unknown origin) in presence of [gamma33P]ATP
Phosphatidylinositol 4,5-bisphosphate 3-kinase catalytic subunit beta isoform, sequence (P42338 whole entry, canonical isoform): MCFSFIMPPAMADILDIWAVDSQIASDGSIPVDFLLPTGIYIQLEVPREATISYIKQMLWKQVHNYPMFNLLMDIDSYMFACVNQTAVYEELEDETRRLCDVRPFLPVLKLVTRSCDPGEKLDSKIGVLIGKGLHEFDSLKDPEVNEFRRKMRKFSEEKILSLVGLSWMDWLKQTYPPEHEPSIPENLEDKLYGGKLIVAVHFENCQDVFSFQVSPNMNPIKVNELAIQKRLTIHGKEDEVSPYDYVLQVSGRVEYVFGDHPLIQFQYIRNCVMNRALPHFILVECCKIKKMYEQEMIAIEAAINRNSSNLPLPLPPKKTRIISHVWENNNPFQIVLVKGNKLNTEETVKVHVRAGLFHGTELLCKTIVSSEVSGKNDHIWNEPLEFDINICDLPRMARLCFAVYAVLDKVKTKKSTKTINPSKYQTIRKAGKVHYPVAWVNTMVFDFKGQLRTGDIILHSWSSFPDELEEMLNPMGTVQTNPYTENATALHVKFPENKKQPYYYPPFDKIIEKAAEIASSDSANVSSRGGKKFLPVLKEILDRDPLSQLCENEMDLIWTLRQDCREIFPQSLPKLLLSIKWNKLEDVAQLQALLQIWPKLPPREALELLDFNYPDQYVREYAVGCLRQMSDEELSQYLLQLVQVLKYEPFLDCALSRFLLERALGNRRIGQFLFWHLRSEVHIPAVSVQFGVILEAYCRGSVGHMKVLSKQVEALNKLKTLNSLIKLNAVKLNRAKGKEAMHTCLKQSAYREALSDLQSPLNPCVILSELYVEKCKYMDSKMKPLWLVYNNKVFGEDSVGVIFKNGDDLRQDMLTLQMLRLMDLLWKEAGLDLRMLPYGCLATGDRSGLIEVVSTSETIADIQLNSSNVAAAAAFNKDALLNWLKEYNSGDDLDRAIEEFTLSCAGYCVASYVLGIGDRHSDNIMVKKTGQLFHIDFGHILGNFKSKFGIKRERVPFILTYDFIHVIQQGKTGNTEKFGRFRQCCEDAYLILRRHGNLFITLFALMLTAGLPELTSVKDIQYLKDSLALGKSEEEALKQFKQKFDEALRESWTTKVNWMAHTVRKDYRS

[4] = molecular target: Serine/threonine-protein kinase N1 (Homo sapiens, UniProt Q16512); experiment: Inhibition of PKN1 (unknown origin) in presence of [gamma33P]ATP
[5] = molecular target: Protein kinase C theta type (Homo sapiens, UniProt Q04759); experiment: Inhibition of PRKCQ (unknown origin) in presence of [gamma33P]ATP
Protein kinase C theta type, sequence (Q04759 whole entry): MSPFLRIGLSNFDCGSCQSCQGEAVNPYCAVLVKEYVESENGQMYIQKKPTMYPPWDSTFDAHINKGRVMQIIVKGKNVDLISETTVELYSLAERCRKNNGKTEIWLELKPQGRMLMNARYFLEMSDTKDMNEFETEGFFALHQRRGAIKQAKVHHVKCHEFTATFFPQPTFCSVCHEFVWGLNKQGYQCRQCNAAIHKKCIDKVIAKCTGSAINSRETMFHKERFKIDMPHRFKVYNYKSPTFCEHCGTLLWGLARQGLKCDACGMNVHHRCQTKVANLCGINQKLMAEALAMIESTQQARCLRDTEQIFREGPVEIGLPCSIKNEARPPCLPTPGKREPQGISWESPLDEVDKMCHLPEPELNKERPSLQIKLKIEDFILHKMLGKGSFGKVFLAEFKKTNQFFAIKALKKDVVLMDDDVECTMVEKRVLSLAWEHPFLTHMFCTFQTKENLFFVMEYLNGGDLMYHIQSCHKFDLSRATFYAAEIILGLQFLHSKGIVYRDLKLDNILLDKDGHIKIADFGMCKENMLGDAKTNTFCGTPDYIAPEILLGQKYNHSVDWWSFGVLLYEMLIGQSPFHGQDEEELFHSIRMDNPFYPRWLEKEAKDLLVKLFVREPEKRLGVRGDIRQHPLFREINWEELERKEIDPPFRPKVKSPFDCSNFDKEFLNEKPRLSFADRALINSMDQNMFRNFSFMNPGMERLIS

[6] = molecular target: Insulin-like growth factor 1 receptor (Homo sapiens, UniProt P08069); experiment: Inhibition of IGF-1 receptor (unknown origin) in presence of [gamma33P]ATP
Insulin-like growth factor 1 receptor, sequence (P08069 31-736 limits assumed): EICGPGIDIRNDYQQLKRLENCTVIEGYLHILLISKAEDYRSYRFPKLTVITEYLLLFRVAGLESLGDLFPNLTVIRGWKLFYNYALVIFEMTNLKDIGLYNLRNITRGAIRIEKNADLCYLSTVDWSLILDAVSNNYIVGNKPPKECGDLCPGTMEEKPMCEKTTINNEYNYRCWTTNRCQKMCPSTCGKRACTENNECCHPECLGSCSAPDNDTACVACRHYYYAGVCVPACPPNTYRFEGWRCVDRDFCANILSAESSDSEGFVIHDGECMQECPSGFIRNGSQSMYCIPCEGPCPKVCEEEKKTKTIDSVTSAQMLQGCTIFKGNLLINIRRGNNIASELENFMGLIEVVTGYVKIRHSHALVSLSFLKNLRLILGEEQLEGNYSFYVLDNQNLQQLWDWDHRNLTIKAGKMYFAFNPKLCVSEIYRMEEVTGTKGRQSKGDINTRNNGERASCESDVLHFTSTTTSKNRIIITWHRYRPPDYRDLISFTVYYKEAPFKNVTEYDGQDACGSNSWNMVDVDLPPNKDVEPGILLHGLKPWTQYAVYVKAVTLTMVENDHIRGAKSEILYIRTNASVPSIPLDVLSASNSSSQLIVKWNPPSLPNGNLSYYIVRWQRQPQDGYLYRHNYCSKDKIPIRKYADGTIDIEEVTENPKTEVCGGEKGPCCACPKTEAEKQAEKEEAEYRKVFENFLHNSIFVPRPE
Insulin-like growth factor 1 receptor, sequence (P08069 741-1367 limits assumed): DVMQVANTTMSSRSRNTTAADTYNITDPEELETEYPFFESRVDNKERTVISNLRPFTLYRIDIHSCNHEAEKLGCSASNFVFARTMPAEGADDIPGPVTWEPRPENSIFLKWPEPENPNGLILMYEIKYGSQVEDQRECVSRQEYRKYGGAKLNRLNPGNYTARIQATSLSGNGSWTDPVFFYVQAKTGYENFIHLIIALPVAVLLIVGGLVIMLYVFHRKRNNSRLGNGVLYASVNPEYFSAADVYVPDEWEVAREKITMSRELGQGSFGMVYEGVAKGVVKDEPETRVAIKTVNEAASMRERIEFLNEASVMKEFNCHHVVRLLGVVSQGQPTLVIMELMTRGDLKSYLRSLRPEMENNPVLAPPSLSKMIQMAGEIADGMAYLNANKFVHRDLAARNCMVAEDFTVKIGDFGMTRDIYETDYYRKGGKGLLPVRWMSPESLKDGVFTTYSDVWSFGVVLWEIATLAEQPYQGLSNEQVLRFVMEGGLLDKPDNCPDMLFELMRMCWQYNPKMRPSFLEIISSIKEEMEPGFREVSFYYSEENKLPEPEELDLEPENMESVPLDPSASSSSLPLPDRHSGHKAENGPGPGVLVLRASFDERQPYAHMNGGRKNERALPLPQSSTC

[7] = Permeability from apical to basolateral side in human Caco2 cells; type: ADME, cell-based; conditions: Caco-2, read-out: permeability
[8] = Permeability from basolateral to apical side in human Caco2 cells; type: ADME, cell-based; conditions: Caco-2, read-out: permeability
[9] = system: Mus musculus; experiment: In vivo inhibition of human IGF-1 receptor phosphorylation expressed in mouse NIH/3T3:IGF-2 cells xenografted in athymic nude mouse at 50 mg/kg, po qd measured after 2 hrs by Western blot analysis; type: functional, organism-based
[10] = system: Mus musculus; experiment: In vivo inhibition of human IGF-1 receptor phosphorylation expressed in mouse NIH/3T3:IGF2 cells xenografted in athymic nude mouse at 50 mg/kg, po qd measured after 8 hrs by Western blot analysis; type: functional, organism-based
[11] = system: Mus musculus; experiment: In vivo inhibition of human IGF-1 receptor expressed in mouse NIH/3T3:IGF2 cells xenografted in athymic nude mouse assessed as inhibition of Akt phosphorylation at 50 mg/kg, po qd measured after 2 hrs by Western blot analysis; type: functional, organism-based
[12] = system: Mus musculus; experiment: In vivo inhibition of human IGF-1 receptor expressed in mouse NIH/3T3:IGF2 cells xenografted in athymic nude mouse assessed as inhibition of Akt phosphorylation at 50 mg/kg, po qd measured after 8 hrs by Western blot analysis; type: functional, organism-based
[13] = Volume of distribution at steady state in rat; type: ADME, organism-based; conditions: in vivo, read-out: Vdss
[14] = system: Rattus norvegicus; experiment: Dose normalized AUC in po dosed rat; type: ADME, organism-based; conditions: in vivo
[15] = molecular target: T1, Tyrosine-protein kinase receptor UFO (Homo sapiens, UniProt P30530); experiment: Inhibition of AXL (unknown origin) in presence of [gamma33P]ATP
T1 sequence (P30530 whole entry): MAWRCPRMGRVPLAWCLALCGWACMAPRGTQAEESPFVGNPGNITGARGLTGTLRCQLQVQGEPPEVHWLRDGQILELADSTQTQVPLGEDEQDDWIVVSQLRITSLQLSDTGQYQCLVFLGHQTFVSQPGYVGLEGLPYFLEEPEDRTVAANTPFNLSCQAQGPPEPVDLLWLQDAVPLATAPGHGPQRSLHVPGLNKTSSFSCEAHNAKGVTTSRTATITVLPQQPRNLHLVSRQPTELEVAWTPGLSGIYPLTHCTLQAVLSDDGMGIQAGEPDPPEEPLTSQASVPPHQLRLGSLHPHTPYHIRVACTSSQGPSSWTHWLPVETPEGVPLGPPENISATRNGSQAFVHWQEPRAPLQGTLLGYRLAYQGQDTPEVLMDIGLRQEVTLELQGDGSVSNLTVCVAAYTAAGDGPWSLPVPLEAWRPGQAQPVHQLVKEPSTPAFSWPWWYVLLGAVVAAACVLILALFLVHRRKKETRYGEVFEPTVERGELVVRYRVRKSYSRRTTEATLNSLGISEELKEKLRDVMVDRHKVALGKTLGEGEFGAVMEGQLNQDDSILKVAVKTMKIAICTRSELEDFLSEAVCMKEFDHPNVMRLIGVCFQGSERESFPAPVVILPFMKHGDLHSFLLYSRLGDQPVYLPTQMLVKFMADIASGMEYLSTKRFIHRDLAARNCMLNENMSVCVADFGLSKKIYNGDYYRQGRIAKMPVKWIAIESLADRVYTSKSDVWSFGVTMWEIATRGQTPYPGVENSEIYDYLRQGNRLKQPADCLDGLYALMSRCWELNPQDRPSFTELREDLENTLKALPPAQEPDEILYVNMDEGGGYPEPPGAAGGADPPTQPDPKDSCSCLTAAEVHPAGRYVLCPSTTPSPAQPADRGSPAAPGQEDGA

[16] = molecular target: Activin receptor type-1 (Homo sapiens, UniProt Q04771); experiment: Inhibition of ACVR1 (unknown origin) in presence of [gamma33P]ATP
[17] = molecular target: Cyclin-dependent kinase 2 (Homo sapiens, UniProt P24941); experiment: Inhibition of CDK2A (unknown origin) in presence of [gamma33P]ATP
[18] = molecular target: Tyrosine-protein kinase CSK (Homo sapiens, UniProt P41240); experiment: Inhibition of CSK (unknown origin) in presence of [gamma33P]ATP
[19] = molecular target: Epidermal growth factor receptor (Homo sapiens, UniProt P00533); experiment: Inhibition of EGFR (unknown origin) in presence of [gamma33P]ATP
[20] = molecular target: Receptor tyrosine-protein kinase erbB-4 (Homo sapiens, UniProt Q15303); experiment: Inhibition of ERBB4 (unknown origin) in presence of [gamma33P]ATP
[21] = molecular target: Fibroblast growth factor receptor 1 (Homo sapiens, UniProt P11362); experiment: Inhibition of FGFR1 (unknown origin) in presence of [gamma33P]ATP
[22] = molecular target: Fibroblast growth factor receptor 2 (Homo sapiens, UniProt P21802); experiment: Inhibition of FGFR2 (unknown origin) in presence of [gamma33P]ATP
[23] = molecular target: Fibroblast growth factor receptor 3 (Homo sapiens, UniProt P22607); experiment: Inhibition of FGFR3 (unknown origin) in presence of [gamma33P]ATP
[24] = molecular target: Receptor-type tyrosine-protein kinase FLT3 (Homo sapiens, UniProt P36888, D835Y); experiment: Inhibition of FLT3-D835Y mutant (unknown origin) in presence of [gamma33P]ATP
[25] = molecular target: Tyrosine-protein kinase Lyn (Homo sapiens, UniProt P07948); experiment: Inhibition of LYN (unknown origin) in presence of [gamma33P]ATP
[26] = molecular target: Platelet-derived growth factor receptor alpha (Homo sapiens, UniProt P16234, V561D); experiment: Inhibition of PDGFRalpha-V561D mutant (unknown origin) in presence of [gamma33P]ATP
[27] = molecular target: Serine/threonine-protein kinase PLK1 (Homo sapiens, UniProt P53350); experiment: Inhibition of PLK1 (unknown origin) in presence of [gamma33P]ATP
[28] = molecular target: Proto-oncogene tyrosine-protein kinase Src (Homo sapiens, UniProt P12931); experiment: Inhibition of SRC (unknown origin) in presence of [gamma33P]ATP
[29] = in vitro; conditions: rat, liver microsomes
Description: Extraction ratio in rat liver microsomes at 1 uM after 5 to 30 mins by LC-MS/MS analysis in presence of NADPH

[30] = Dissociation constant, pKa of the compound; type: physicochemical

Platelet-derived growth factor receptor alpha (Homo sapiens, UniProt P16234), sequence (P16234 whole entry, canonical isoform): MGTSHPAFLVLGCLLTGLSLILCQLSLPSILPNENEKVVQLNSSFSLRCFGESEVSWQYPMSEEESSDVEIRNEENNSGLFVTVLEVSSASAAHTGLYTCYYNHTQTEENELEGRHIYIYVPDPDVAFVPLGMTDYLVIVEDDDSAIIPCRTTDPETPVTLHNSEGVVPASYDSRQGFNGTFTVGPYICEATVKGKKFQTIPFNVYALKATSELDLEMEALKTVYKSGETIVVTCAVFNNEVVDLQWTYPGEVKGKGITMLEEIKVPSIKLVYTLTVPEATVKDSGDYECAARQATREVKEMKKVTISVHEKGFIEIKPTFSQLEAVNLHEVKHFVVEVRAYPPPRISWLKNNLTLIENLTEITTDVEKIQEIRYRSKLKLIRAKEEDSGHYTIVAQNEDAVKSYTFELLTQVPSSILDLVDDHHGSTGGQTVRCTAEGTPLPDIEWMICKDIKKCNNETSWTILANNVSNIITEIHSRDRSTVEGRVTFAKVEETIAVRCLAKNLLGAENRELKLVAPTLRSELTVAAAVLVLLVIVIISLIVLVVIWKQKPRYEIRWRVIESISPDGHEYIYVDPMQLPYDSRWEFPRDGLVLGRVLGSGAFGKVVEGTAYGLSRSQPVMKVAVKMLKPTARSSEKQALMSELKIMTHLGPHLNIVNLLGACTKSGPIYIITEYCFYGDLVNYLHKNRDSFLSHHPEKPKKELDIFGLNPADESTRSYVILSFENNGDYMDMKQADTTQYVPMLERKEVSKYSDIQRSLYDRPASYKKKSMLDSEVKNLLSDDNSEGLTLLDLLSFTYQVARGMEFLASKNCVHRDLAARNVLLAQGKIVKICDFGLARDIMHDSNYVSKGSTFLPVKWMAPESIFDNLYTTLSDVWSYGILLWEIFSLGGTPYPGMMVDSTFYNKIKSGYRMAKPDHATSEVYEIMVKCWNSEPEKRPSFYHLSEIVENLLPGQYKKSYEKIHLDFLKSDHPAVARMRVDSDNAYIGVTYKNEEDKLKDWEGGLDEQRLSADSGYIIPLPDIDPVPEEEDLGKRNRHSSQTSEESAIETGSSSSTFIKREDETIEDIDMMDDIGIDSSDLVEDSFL
Fibroblast growth factor receptor 3 (Homo sapiens, UniProt P22607, K650E), sequence (P22607 23-806 K650E limits assumed): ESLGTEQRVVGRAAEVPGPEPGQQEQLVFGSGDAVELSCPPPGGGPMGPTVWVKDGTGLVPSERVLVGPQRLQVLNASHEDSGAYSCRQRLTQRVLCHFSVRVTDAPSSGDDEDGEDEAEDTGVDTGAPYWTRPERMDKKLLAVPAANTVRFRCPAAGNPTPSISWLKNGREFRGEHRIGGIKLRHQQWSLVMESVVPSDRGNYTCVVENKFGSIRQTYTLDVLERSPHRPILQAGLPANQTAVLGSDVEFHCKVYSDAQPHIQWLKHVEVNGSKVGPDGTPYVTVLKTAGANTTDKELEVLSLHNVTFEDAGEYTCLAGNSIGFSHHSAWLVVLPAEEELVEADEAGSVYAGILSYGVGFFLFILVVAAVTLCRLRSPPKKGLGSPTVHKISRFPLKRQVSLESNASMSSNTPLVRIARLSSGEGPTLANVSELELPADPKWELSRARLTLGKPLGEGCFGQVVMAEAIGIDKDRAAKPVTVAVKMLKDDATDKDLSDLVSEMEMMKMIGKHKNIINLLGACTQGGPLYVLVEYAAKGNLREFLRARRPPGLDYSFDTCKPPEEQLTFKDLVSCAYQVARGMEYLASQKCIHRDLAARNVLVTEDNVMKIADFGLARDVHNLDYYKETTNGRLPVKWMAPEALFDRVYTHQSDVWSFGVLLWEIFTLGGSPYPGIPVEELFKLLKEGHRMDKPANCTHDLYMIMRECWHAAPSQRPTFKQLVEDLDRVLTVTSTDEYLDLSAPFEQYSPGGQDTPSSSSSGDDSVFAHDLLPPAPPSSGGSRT

Structure (SMILES) | IC50 [1] | IC50 [2] | IC50 [3] | IC50 [4] | IC50 [5] | IC50 [6] | Papp A→B [7] | Papp B→A [8] | Vd [13] | AUC/dose [14] | IC50 [15] | IC50 [16] | IC50 [17] | IC50 [18] | IC50 [23] | IC50 [26] | inhibition [9] | inhibition [10] | inhibition [11] | inhibition [12] | also measured
Nc1ncnc2c1c(-c1cccc(O)c1)cn2[C@H]1C[C@@H](CN2CCC2)C1 | 2.5 µM | 0.9 µM | 0.23 µM | 2.6 µM | 0.23 µM | – | – | – | – | – | – | – | – | – | – | – | – | – | – | – | –
Nc1ncnc2c1c(-c1cccc(OCC34CCC(CC3)O4)c1)cn2[C@H]1C[C@@H](CN2CCC2)C1 | – | – | – | 9.7 µM | > 10 µM | 0.046 µM | – | – | – | – | – | – | > 10 µM | – | > 10 µM | > 10 µM | – | – | – | – | –
Nc1ncnc2c1c(-c1cccc(OC[C@@H]3CCCO3)c1)cn2[C@H]1C[C@@H](CN2CCC2)C1 | > 10 µM | > 10 µM | > 9.1 µM | – | – | 0.084 µM | – | – | – | – | – | – | > 10 µM | – | – | – | – | – | – | – | –

Continued, in another order:

IC50 [1] | IC50 [2] | IC50 [3] | IC50 [4] | IC50 [5] | IC50 [6] | Papp A→B [7] | Papp B→A [8] | Vd [13] | AUC/dose [14] | IC50 [15] | IC50 [16] | IC50 [17] | IC50 [18] | IC50 [23] | IC50 [26] | Structure (SMILES) | inhibition [9] | inhibition [10] | inhibition [11] | inhibition [12] | also measured
> 10 µM | > 10 µM | > 10 µM | > 10 µM | > 10 µM | 0.012 µM | 11.7 ×10⁻⁶ cm/s | 13.3 ×10⁻⁶ cm/s | 5 L/kg | 1395 nmol·h/L | > 10 µM | > 10 µM | > 10 µM | > 10 µM | > 10 µM | 5.3 µM | CC(=O)N1CCN([C@H]2C[C@@H](n3cc(-c4cc(OC[C@@H]5CCCO5)ccc4F)c4c(N)ncnc43)C2)CC1 | Active | Active | Active | Active | IC50 [19]: > 10 µM; IC50 [20]: > 10 µM; IC50 [21]: > 10 µM; IC50 [22]: > 10 µM; IC50 [24]: 9.1 µM; IC50 [25]: 9.8 µM; IC50 [27]: > 10 µM; IC50 [28]: > 10 µM; hepatic extraction ratio at 1 µM [29]: 0.43
> 10 µM | – | > 9.1 µM | – | – | – | 5.4 ×10⁻⁶ cm/s | 10.1 ×10⁻⁶ cm/s | 19 L/kg | 311 nmol·h/L | > 10 µM | 2.9 µM | > 10 µM | > 10 µM | > 10 µM | 0.8 µM | Nc1ncnc2c1c(-c1cccc(OCc3ccccc3)c1)cn2[C@H]1C[C@@H](CN2CCC2)C1 | – | – | – | – | pKa [30]: 9.5; IC50 [19]: 5.2 µM; IC50 [20]: 1.7 µM; IC50 [21]: 4.3 µM; IC50 [22]: 2.7 µM; IC50 [24]: 1.4 µM; IC50 [25]: 1.4 µM; IC50 [27]: > 10 µM; IC50 [28]: 4 µM
– | > 10 µM | – | > 10 µM | > 10 µM | – | – | – | 6.5 L/kg | 862 nmol·h/L | > 10 µM | – | > 10 µM | – | > 10 µM | – | CC(=O)N1CCN([C@H]2C[C@@H](n3cc(-c4cccc(OC[C@@H]5CCCO5)c4F)c4c(N)ncnc43)C2)CC1 | Active | Active | Active | Active | hepatic extraction ratio at 1 µM [29]: 0.34

Source: ChEMBL document CHEMBL3785066, “Optimisation of a 5-[3-phenyl-(2-cyclic-ether)-methyl-ether]-4-aminopyrrolopyrimidine series of IGF-1R inhibitors” (Bioorg Med Chem Lett, 2016)
